Test results: patent US12630565B2, “DNA-dependent protein kinase inhibitor” (DIZAL (JIANGSU) PHARMACEUTICAL CO., LTD., priority 2019, dated 2026)

How the values were obtained:
Rat hepatocyte = assay: Metabolic stability assay (rat hepatocyte Clint); assay type: in vitro ADME; conditions: 1 μM compound, cryopreserved hepatocytes 1 million cells per mL
Procedure, shortened: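 Compound at 1 μM incubated with cryopreserved rat hepatocytes, 1 million cells/mL, sampled 0–120 min with acetonitrile quench and LC-MS/MS quantitation. CLint (μL/min/E6) derived from elimination rate constant and half-life of parent disappearance, scaled by cell concentration.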

[1] = Metabolic stability assay (human microsomal Clint); assay type: in vitro ADME; conditions: 1 mg/mL microsomes, 1 mM NADPH, 37° C.; for Human liver microsomal CLint: 1 μM compound; for microsomal CLint at 1 μM: human, pooled human liver microsomes, pH 7.4, 1 μM compound
Procedure, shortened: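 Compound (1 μM) incubated at 37 °C with pooled human liver microsomes (1 mg/mL) and 1 mM NADPH in 100 mM phosphate, pH 7.4. Samples quenched in acetonitrile at 0–30 min and analysed by LC-MS/MS for parent loss. CLint reported in μl/min/mg.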

[2] = test system: MDCKII-MDR1-BCRP cell monolayers; assay: MDCKII-MDR1-BCRP efflux assay; assay type: in vitro ADME; conditions: 5 μM compound, 120 min, HBSS pH 7.4
Procedure, shortened: (§1)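 Bidirectional (A-B, B-A) transport of 5 μM compound across MDCKII-MDR1-BCRP monolayers in HBSS, 25 mM HEPES pH 7.4, ~37° C. for 120 min, triplicate; donor and receiver concentrations measured, monolayer integrity checked with Lucifer yellow. Papp and efflux ratio calculated.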

[3] = molecular target: Full length human DNAPK protein (Homo sapiens, UniProt P78527); assay: DNA-PK enzymatic assay (TR-FRET); assay type: biochemical; conditions: 10 μM ATP, 1.6 μM peptide substrate
MDR1, BCRP = assay: MDCKII-MDR1-BCRP efflux assay; assay type: in vitro ADME; conditions: dog, pH 7.4, 5 μM compound, HBSS pH 7.4, read-out: MDCK-Mdr1-BCRP efflux ratio
Procedure, shortened: as §1

Row | SMILES | Rat hepatocyte CLint (μl/min/10^−6 cells) (Rat hepatocyte) | Human liver microsomal CLint [1] | MDCK-Mdr1-BCRP efflux ratio [2] | IC50 [3] | microsomal CLint at 1 μM [1] | efflux ratio at 120 min, 5 μM (MDR1, BCRP)
1 | Cc1cc2ncnn2cc1Nc1ncc2c(C)nn(CC3CCCO3)c2n1 (single isomer, unassigned) [Example 51, 3-methyl-N-(7-methyl-[1,2,4]triazolo[1,5-a]pyridin-6-yl)-1-((tetrahydrofuran-2-yl)methyl)-1H-pyrazolo[3,4-d]pyrimidin-6-amine] | <1 μl/min/10^−6 cells | 20.9 µL/min/mg | 1.9 | 12 nM | – | –
2 | Cc1cc2ncnn2cc1Nc1ncc2c(C)nn(C3CC(C)OC(C)C3)c2n1 (single isomer, unassigned) [Example 86-1, 1-(2,6-dimethyltetrahydro-2H-pyran-4-yl)-3-methyl-N-(7-methyl-[1,2,4]triazolo[1,5-a]pyridin-6-yl)-1H-pyrazolo[3,4-d]pyrimidin-6-amine] | 42.7 μl/min/10^−6 cells | >300 µL/min/mg | 0.9 | 3 nM | – | –
3 | Cc1cc2ncnn2cc1Nc1ncc2c(C)nn(C3CCOCC3C)c2n1 (single isomer, unassigned) [Example 113, 3-methyl-N-(7-methyl-[1,2,4]triazolo[1,5-a]pyridin-6-yl)-1-(3-methyltetrahydro-2H-pyran-4-yl)-1H-pyrazolo[3,4-d]pyrimidin-6-amine] | 8.2 μl/min/10^−6 cells | 60.5 µL/min/mg | 4 | 3.2 nM | – | –
4 | Cc1cc2ncnn2cc1Nc1ncc2c(C)nn(C3CCOC3)c2n1 (single isomer, unassigned) [Example 49, 3-methyl-N-(7-methyl-[1,2,4]triazolo[1,5-a]pyridin-6-yl)-1-(tetrahydrofuran-3-yl)-1H-pyrazolo[3,4-d]pyrimidin-6-amine] | <1 μl/min/10^−6 cells | 8.7 µL/min/mg | 3.4 | 1.7 nM | – | –
5 | Cc1cc2ncnn2cc1Nc1ncc2c(C)nn(C3CCOC(C)C3)c2n1 (single isomer, unassigned) [Example 36, 3-methyl-N-(7-methyl-[1,2,4]triazolo[1,5-a]pyridin-6-yl)-1-(2-methyltetrahydro-2H-pyran-4-yl)-1H-pyrazolo[3,4-d]pyrimidin-6-amine] | 11.6 μl/min/10^−6 cells | 51.5 µL/min/mg | 2.1 | 1.4 nM | – | –
6 | Cc1cc2ncnn2cc1Nc1ncc2c(C)nn(C3CCOC(C)(C)C3)c2n1 (single isomer, unassigned) [Example 117, 1-(2,2-dimethyltetrahydro-2H-pyran-4-yl)-3-methyl-N-(7-methyl-[1,2,4]triazolo[1,5-a]pyridin-6-yl)-1H-pyrazolo[3,4-d]pyrimidin-6-amine] | 9.1 μl/min/10^−6 cells | 50.4 µL/min/mg | 1.8 | 1.8 nM | – | –
7 | COC1CCC(n2nc(C)c3cnc(Nc4cn5ncnc5cc4C)nc32)C1 (single isomer, unassigned) [Example 109, 1-(3-methoxycyclopentyl)-3-methyl-N-(7-methyl-[1,2,4]triazolo[1,5-a]pyridin-6-yl)-1H-pyrazolo[3,4-d]pyrimidin-6-amine] | 11.9 μl/min/10^−6 cells | 87.2 µL/min/mg | 2 | 4 nM | – | –
8 | Cc1cc2ncnn2cc1Nc1ncc2c(C)nn(CC3CCOC3)c2n1 (single isomer, unassigned) [Example 53, 3-methyl-N-(7-methyl-[1,2,4]triazolo[1,5-a]pyridin-6-yl)-1-((tetrahydrofuran-3-yl)methyl)-1H-pyrazolo[3,4-d]pyrimidin-6-amine] | 5.0 μl/min/10^−6 cells | 15.2 µL/min/mg | 2.4 | 7.2 nM | – | –
9 | Cc1cc2ncnn2cc1Nc1ncc2c(C)nn(C3CCOCC3C)c2n1 (single isomer, unassigned) [Example 115, 3-methyl-N-(7-methyl-[1,2,4]triazolo[1,5-a]pyridin-6-yl)-1-(3-methyltetrahydro-2H-pyran-4-yl)-1H-pyrazolo[3,4-d]pyrimidin-6-amine] | 7.7 μl/min/10^−6 cells | 53.5 µL/min/mg | 2 | 1.9 nM | – | –
10 | Cc1cc2ncnn2cc1Nc1ncc2c(C)nn([C@H]3CC[C@@H](O)CC3)c2n1 [Example 32, (1s,4s)-4-(3-methyl-6-((7-methyl-[1,2,4]triazolo[1,5-a]pyridin-6-yl)amino)-1H-pyrazolo[3,4-d]pyrimidin-1-yl)cyclohexan-1-ol] | 11.5 μl/min/10^−6 cells | – | – | 1.9 nM | 9.1 µL/min/mg | 9.4
11 | COc1cc(C)c(Nc2ncc3c(C)nn(C4CCOCC4)c3n2)cn1 [Example 89, N-(6-methoxy-4-methylpyridin-3-yl)-3-methyl-1-(tetrahydro-2H-pyran-4-yl)-1H-pyrazolo[3,4-d]pyrimidin-6-amine] | 9.6 μl/min/10^−6 cells | – | – | 6.2 nM | 10.1 µL/min/mg | 0.8
12 | Cc1cc2ncnn2cc1Nc1ncc2c(C)nn(C3CCOC3)c2n1 (single isomer, unassigned) [Example 48, 3-methyl-N-(7-methyl-[1,2,4]triazolo[1,5-a]pyridin-6-yl)-1-(tetrahydrofuran-3-yl)-1H-pyrazolo[3,4-d]pyrimidin-6-amine] | <1 μl/min/10^−6 cells | – | – | 1.8 nM | 11.1 µL/min/mg | 3.6
13 | Cc1cc2ncnn2cc1Nc1ncc2c(C)nn(C3CCC4(CC3)CC4)c2n1 [Example 37, 3-methyl-N-(7-methyl-[1,2,4]triazolo[1,5-a]pyridin-6-yl)-1-(spiro[2.5]octan-6-yl)-1H-pyrazolo[3,4-d]pyrimidin-6-amine] | 71.1 μl/min/10^−6 cells | – | – | 0.9 nM | 200 µL/min/mg | 0.6
14 | Cc1cc2ncnn2cc1Nc1ncc2c(C)nn(C3CCCOCC3)c2n1 (single isomer, unassigned) [Example 33, 3-methyl-N-(7-methyl-[1,2,4]triazolo[1,5-a]pyridin-6-yl)-1-(oxepan-4-yl)-1H-pyrazolo[3,4-d]pyrimidin-6-amine] | 11.3 μl/min/10^−6 cells | – | – | 1.5 nM | 41.5 µL/min/mg | 3
15 | Cc1cc2ncnn2cc1Nc1ncc2c(C)nn(C3CC(C)OC(C)C3)c2n1 (single isomer, unassigned) [Example 86, 1-(2,6-dimethyltetrahydro-2H-pyran-4-yl)-3-methyl-N-(7-methyl-[1,2,4]triazolo[1,5-a]pyridin-6-yl)-1H-pyrazolo[3,4-d]pyrimidin-6-amine] | 33.4 μl/min/10^−6 cells | – | – | 2.4 nM | > 300 µL/min/mg | 1.4
